According to publication PMC8708274, “Unveiling the Membrane and Cell Wall Action of Antimicrobial Cyclic Lipopeptides: Modulation of the Spectrum of Activity” (Pharmaceutics, 2021):
Read-outs that look alike come from different tables or passages of the source. Positions of bridges follow the written chain, without caps; N, C: chain ends. Non-standard residues stand in square brackets, D forms with d. Residues, ends and D or L forms follow the SMILES beside them. No end group written: not given here. *: point of attachment. Lauroyl = CCCCCCCCCCCC(=O)*; Decanoyl = CCCCCCCCCC(=O)*; dNle = CCCC[C@@H](N)C(=O)O; X1 = CC[C@H](C)CCCCC(=O)*; Nle = CCCC[C@H](N)C(=O)O; Dab = NCC[C@H](N)C(=O)O

How the values were obtained:
[1] = Kinetics of insertion into monolayers; format: binding; conditions: 25 min after injection, 10 mM Tris pH 7.4, 25 °C, average of three independent experiments (error < 10%); for Increase in surface pressure (Δπ), POPE/POPG: POPE/POPG 6:4, initial pressure 32 mN·m^−1, peptide 0.48 μM; for Increase in surface pressure (Δπ), POPC / Increase in surface pressure (Δπ), POPG: initial pressure 32 mN·m^−1, peptide 0.48 μM
Method: (§1) Monolayer studies were performed at room temperature (25 °C) on a monolayer system (NIMA Technology, Coventry, UK) by using a cylindrical PTFE (Teflon®, Wilmington, DE, USA) trough (5 cm diameter) containing a continuously stirred aqueous phase (12 mL, 10 mM Tris pH 7.4) and a Wilhelmy platinum plate connected to an electrobalance. The system was enclosed in a Plexiglass box to reduce surface contamination, and before each run, the plate and the trough were cleaned with hot water at >70 °C to avoid carryover of lipid or peptide. Monolayers of POPG, POPE/POPG (6:4), POPC, or LPS were formed by applying small drops of the lipid stock solutions in CHCl3 on the aqueous subphase with a microsyringe (Hamilton Co., Reno, NV, USA) to achieve a surface pressure of 32 mN·m^−1. After 10 min, allowing for solvent evaporation, a known aliquot of peptide was added without disturbance of the monolayer via an inlet port, and the surface pressure was continuously monitored.

[2] = Kinetics of insertion into monolayers; format: binding, Salmonella enterica serotype Minnesota Re 595; conditions: initial pressure 32 mN·m^−1, peptide 0.48 μM, 25 min after injection, 10 mM Tris pH 7.4, 25 °C, average of three independent experiments (error < 10%)
Method: as §1

[3] = system: fresh rabbit erythrocytes; test: Hemolysis assay; format: cell-based; conditions: 335 μM lipopeptide, 1 h at 37 °C, 10 mM Tris 80 mM NaCl pH 7.4, absorbance 540 nm, average of three independent experiments
Method: Hemolytic activity was evaluated on fresh rabbit erythrocytes collected in EDTA collection tubes, as previously described. Briefly, an erythrocite suspension in buffer (10 mM Tris, 80 mM NaCl pH 7.4) was obtained by centrifugation (three times, 10 min at 4000 rpm) and adjusted at an optical density of 1 at 540 nm. Aliquots of 200 µL were incubated for 1 h at 37 °C with the different lipopeptides in 96-well polypropylene microtiter plates and centrifuged (15 min, 5000 rpm). Lipopetide-induced hemolysis was determined by measuring the absorbance at 540 nm of released hemoglobin (Asample) in the supernatant. Each determination was done by triplicate, and as negative and positive controls, erythrocytes in buffer (A0%) and in distilled water (A100%) were employed, respectively. Hemolysis was calculated according the following equation: % hemolysis = 100 · (Asample − A0%/A100% − A0%).

[4] = system: Pseudomonas aeruginosa ATTC 27853; format: cell-based
Method: (§2) The minimal peptide concentration required to prevent the growth of a given test organism was determined after incubation overnight at 37 °C and was defined as the MIC. Activity was determined in representative bacteria, Escherichia coli ATTC 25922, Pseudomonas aeruginosa ATTC 27853, and Staphylococcus aureus ATTC 25923, using the broth microdilution method. Serial-two-fold dilutions of peptide (from 0.06 to 32 μg/mL) were performed in Mueller–Hinton broth (MHB) culture medium in sterile 96-well polypropylene microtiter plates inoculated with a final concentration of 5 × 10^5 CFU·mL^−1 of bacteria in each well. Bacteria were in the pre-exponential phase. Each determination was done by triplicate. In order to be considered acceptable, the three MIC results have to differ in only in one well, and the result was always given as the higher of the three. Drug-free and microorganism-free wells were used as positive and negative controls, respectively. Bacterial growth was visually determined on the basis of turbidity.

[5] = system: Escherichia coli ATTC 25922; format: cell-based
Method: as §2

[6] = system: Staphylococcus aureus ATTC 25923; format: cell-based
Method: as §2

[7] = system: Staphylococcus aureus ATTC 25923; conditions: cited from earlier work
Method: C6 analogues are devoid of antibacterial effect both against Gram-positive and Gram-negative bacteria, with MICs higher than 32 μg·mL^−1. C8 analogues show some activity, especially against P. aeruginosa but not on Gram-positive S. aureus. […] For example, MIC of 4 μg·mL^−1 and 2 μg·mL^−1 against P. aeruginosa for spB-3 and spE-3 respectively are obtained, where ... || Since some of the polymyxin analogues also have good activities against S. aureus, the effects on the cell morphology of this Gram-positive bacteria were determined.

[8] = system: Escherichia coli ATTC 25922; conditions: cited from earlier work
Method: Table 1 Sequences and antimicrobial activities of the synthesized peptides determined as minimal inhibitory concentration (MIC) calculated for different bacteria strains. | column: MIC/µg mL^−1 (µM) / EC ^1 || Figure 3 Comparative TEM micrographs of P. aeruginosa (left) and E. coli (right). Untreated bacteria (a,b); bacteria treated with polymyxin analogues at 1xMIC: P. aeruginosa with spB-3 (4 μg·mL^−1) (c), or with of spE-10 (1 μg·mL^−1) (e); E. coli treated with spB-3 (2 μg·mL^−1) (d) or spE-10 (8 μg·mL^−1) (f). Lipopeptides cause the alteration of the membranes, with blebs protruding, loss of membrane, clear cytoplasmic zones, and even ghost cells. Similar results are obtained with natural PxB ((g,h), this last one is adapted from (Rabanal et al. Sci. Rep. 2015).

[9] = system: Pseudomonas aeruginosa ATTC 27853; conditions: cited from earlier work
Method: C6 analogues are devoid of antibacterial effect both against Gram-positive and Gram-negative bacteria, with MICs higher than 32 μg·mL^−1. C8 analogues show some activity, especially against P. aeruginosa but not on Gram-positive S. aureus. […] For example, MIC of 4 μg·mL^−1 and 2 μg·mL^−1 against P. aeruginosa for spB-3 and spE-3 respectively are obtained, where ... || Figure 3 Comparative TEM micrographs of P. aeruginosa (left) and E. coli (right). Untreated bacteria (a,b); bacteria treated with polymyxin analogues at 1xMIC: P. aeruginosa with spB-3 (4 μg·mL^−1) (c), or with of spE-10 (1 μg·mL^−1) (e); E. coli treated with spB-3 (2 μg·mL^−1) (d) or spE-10 (8 μg·mL^−1) (f). Lipopeptides cause the alteration of the membranes, with blebs protruding, loss of membrane, clear cytoplasmic zones, and even ghost cells. Similar results are obtained with natural PxB ((g,h), this last one is adapted from (Rabanal et al. Sci. Rep. 2015).

S. aureus = test: Transmission electron microscopy of treated bacteria; format: cell-based, Staphylococcus aureus; conditions: 1xMIC, 120 min, tryptone water
Method: Then, 500 µL of this culture were added to 50 mL of tryptone water for a concentration of ≈10^8 bacteria·mL^−1. Aliquots of 10 mL were incubated with the lipopeptide at the desired concentration for 2 h at room temperature, and bacterial cells were collected by centrifugation (12,857 g, 20 min). Samples were fixed with 2.5% glutaraldehyde in phosphate buffer for 2 h at 4 °C, washed with the same buffer, and post fixed with 1% osmium tetroxide in buffer containing 0.8% potassium ferricyanide at 4 °C. Then, the samples were dehydrated for 1 h in acetone, infiltrated in a graded series of Epon resin (Ted pella, Inc., Redding, CA, USA) during 2 days, and finally embedded in fresh Epon resin and polymerized at 60 °C during 48 h. Ultrathin sections were obtained using a Leica Ultracut UCT ultramicrotome (Leica, Vienna, Austria) and mounted on Formvar-coated copper grids. Sections were stained with 2% aqueous uranyl acetate and lead citrate and examined in a JEM-1010 electron microscope (Jeol, Tokyo, Japan).

[10] = broth microdilution, MHB, 5 × 10^5 CFU/mL, overnight 37 °C, triplicate, higher of the three
[11] = value in brackets, broth microdilution, MHB, overnight 37 °C, triplicate
[12] = taken from the literature (analogues #37, #38, #39)
[13] = value in brackets, taken from the literature

Molecule	Increase in surface pressure (Δπ), POPE/POPG [1] [mN·m^−1]	Increase in surface pressure (Δπ), POPC [1] [mN·m^−1]	Increase in surface pressure (Δπ), POPG [1] [mN·m^−1]	Increase in surface pressure (Δπ), LPS [2] [mN·m^−1]	MIC PA [4, 10] [µg/mL]	MIC PA [4, 11] [µM]	MIC EC [5, 10] [µg/mL]	MIC SA [6, 10] [µg/mL]	MIC SA [6, 11] [µM]	MIC PA ([4]; ATTC 27853) [µM]	MIC EC ([5]; ATTC 25922) [µM]	MIC SA ([6]; ATTC 25923) [µM]	MIC SA [7, 12] [µg/mL]	MIC SA [7, 13] [µM]	MIC EC [8, 12] [µg/mL]	MIC EC [8, 13] [µM]	MIC PA [9, 12] [µg/mL]	MIC PA [9, 13] [µM]	other results
CC[C@H](C)CCCCC(=O)N[C@@H](CCN)C(=O)N[C@H](C(=O)N[C@@H](CCN)C(=O)N[C@H]1CCNC(=O)[C@H]([C@@H](C)O)NC(=O)[C@H](CCN)NC(=O)[C@H](CCN)NC(=O)[C@H](CC(C)C)NC(=O)[C@@H](Cc2ccccc2)NC(=O)[C@H](CCN)NC1=O)[C@@H](C)O [PxB, Polymyxin B, reference compound] (X1-[Dab]T[Dab][Dab][Dab][dF]L[Dab][Dab]T; lactam 4-C)	7.2	1.4	5.9	11.4	0.5	0.42	1	> 32	> 27	–	–	–	–	–	–	–	–	–	hemolysis [3]: 18%; MIC EC [5, 11]: 0.83 µM
CCCCCCCCCCCC(=O)N[C@@H](CCN)C(=O)N[C@H](C(=O)N[C@@H](CCN)C(=O)N[C@H]1CSSC[C@H](C(N)=O)NC(=O)[C@H](CCN)NC(=O)[C@H](CCN)NC(=O)[C@H](CC(C)C)NC(=O)[C@@H](CC(C)C)NC(=O)[C@H](CCN)NC1=O)[C@@H](C)O [spE-4] (Lauroyl-[Dab]T[Dab]C[Dab][dL]L[Dab][Dab][dC]-NH2; disulfide 4-10)	9.1	2.1	5.8	11.4	1	–	8	8	–	0.81	6.5	6.5	–	–	–	–	–	–	–
CCCCCCCCCC(=O)N[C@@H](CCN)C(=O)N[C@H](C(=O)N[C@@H](CCN)C(=O)N[C@H]1CSSC[C@H](C(N)=O)NC(=O)[C@H](CCN)NC(=O)[C@H](CCN)NC(=O)[C@H](CCCC)NC(=O)[C@@H](CCCC)NC(=O)[C@H](CCN)NC1=O)[C@@H](C)O [spE-7] (Decanoyl-[Dab]T[Dab]C[Dab][dNle][Nle][Dab][Dab][dC]-NH2; disulfide 4-10)	6.8	1.4	8.2	14.2	2	1.7	2	8	6.7	–	1.7	–	–	–	–	–	–	–	–
CCCCCCCCCCCC(=O)N[C@@H](CCN)C(=O)N[C@H](C(=O)N[C@@H](CCN)C(=O)N[C@H]1CSSC[C@H](C(N)=O)NC(=O)[C@H](CCN)NC(=O)[C@H](CCN)NC(=O)[C@H](CCCC)NC(=O)[C@@H](CCCC)NC(=O)[C@H](CCN)NC1=O)[C@@H](C)O [spE-8] (Lauroyl-[Dab]T[Dab]C[Dab][dNle][Nle][Dab][Dab][dC]-NH2; disulfide 4-10)	9.8	1.3	7.4	12.5	4	–	4	4	–	3.3	3.3	3.3	–	–	–	–	–	–	–
Decanoyl-[Dab]T[Dab]C[Dab]F[Nle][Dab][Dab]C (disulfide 4-10 (inferred)) [spB-7, Series II-PxB analogue, decanoyl, Nle in position 7]	6.5	2.1	4.2	9.3	–	–	–	–	–	–	–	–	4	3.2	2	1.6	1	0.81	–
Lauroyl-[Dab]T[Dab]C[Dab]F[Nle][Dab][Dab]C (disulfide 4-10 (inferred)) [spB-8, the C12/Nle7 derivative]	6.2	1.7	3.8	11.2	–	–	–	–	–	–	–	–	2	1.58	4	3.2	1	0.79	ultrastructural effect on S. aureus (TEM) (S. aureus): Even more disruptive effects
